Experimental data: patent US10028916B2, “Orally disintegrating dosage form for administration of avanafil, and associated methods of manufacture and use” (Vivus, Inc., priority 2014, dated 2018)
Converted amounts (≈) assume the structure as drawn. Like-named read-outs stand apart in the source and are kept apart here.

Tests used:
[1] = Aqueous solubility of avanafil by HPLC at a range of pH values; type: physicochemical; settings: sodium carbonate buffer, thermodynamic from solid, Solution 10, 0.1N Na2CO3, pH 10.0
[2] = cited from earlier work
[3] = Aqueous solubility of avanafil by HPLC at a range of pH values; type: physicochemical; settings: thermodynamic from solid
Description: A high performance liquid chromatography (HPLC) procedure was used to evaluate the aqueous solubility of avanafil (obtained from Tanabe Seiyaku Co., LTD, purity, 97.0% to 103% with an observed purity of 98.89%; particle diameter, 10-20 microns with median observed particle diameter of 18.47 microns) at a range of pH values. The HPLC conditions were as follows: system, HP Model 1100; analytical column, Supelco Kromasil C8, 4.6 mm×250 mm, 5 μm particle size; assay injection volume, 20 μl; stock stability injection volume, 0.5 μl; needle wash volume, 91 μl; mobile phase flow rate, 1.00 ml/minute; column temperature, 30° C.; detection wavelength 246 nm; flow cell path length, 10 mm; range step 2.00 nm; threshold, 1.00 mAU; stop time, 30 minutes. Solutions 1, 2, 3, 6, 7, 8, 11, and 12 were buffered to pH values of 0.99, 2.00, 3.00, 6.00, 7.00, 8.00, 11.0, and 12.0, respectively, using a phosphate buffer, 0.1M KH2PO4. Solutions 4 and 5 were buffered to pH values of 4.00 and 5.00, respectively, using a sodium acetate buffer, 0.1M NaOAc, while solutions 9 and 10 were respectively buffered to pH values of 9.00 and 10.00 using a sodium carbonate buffer, 0.1M Na2CO3.

- solubility [1]: < 0.05 µg/mL
- solubility ([3]; phosphate buffer, aqueous buffer, Solution 1, 0.1M KH2PO4, pH 0.999): > 199000 µg/mL
- solubility ([3]; phosphate buffer, aqueous buffer, Solution 2, 0.1M KH2PO4, pH 2.00): 35000 µg/mL (≈ 72300 µM)
- solubility ([3]; phosphate buffer, aqueous buffer, Solution 3, 0.1M KH2PO4, pH 3.00): 1700 µg/mL (≈ 3510 µM)
- solubility ([3]; phosphate buffer, aqueous buffer, Solution 6, 0.1M KH2PO4, pH 6.00): 1.28 µg/mL (≈ 2.64 µM)
- solubility ([3]; phosphate buffer, aqueous buffer, Solution 7, 0.1M KH2PO4, pH 7.00): 0.233 µg/mL (≈ 0.481 µM)
- solubility ([3]; phosphate buffer, aqueous buffer, Solution 8, 0.1M KH2PO4, pH 8.00): 0.052 µg/mL (≈ 0.107 µM)
- solubility ([3]; phosphate buffer, aqueous buffer, Solution 11, 0.1M KH2PO4, pH 11.0): 0.0568 µg/mL (≈ 0.117 µM)
- solubility ([3]; phosphate buffer, aqueous buffer, Solution 12, 0.1M KH2PO4, pH 12.0): < 0.05 µg/mL
- solubility ([3]; sodium acetate buffer, aqueous buffer, Solution 4, 0.1M NaOAc, pH 4.00): 344 µg/mL (≈ 711 µM)
- solubility ([3]; sodium acetate buffer, aqueous buffer, Solution 5, 0.1M NaOAc, pH 5.00): 19.5 µg/mL (≈ 40.3 µM)
- solubility ([3]; sodium carbonate buffer, aqueous buffer, Solution 9, 0.1M Na2CO3, pH 9.00): < 0.05 µg/mL
- solubility ([3]; water, ASTM Type II H2O, no buffer): 0.139 µg/mL (≈ 0.287 µM)
SMILES: COc1ccc(CNc2nc(N3CCC[C@H]3CO)ncc2C(=O)NCc2ncccn2)cc1Cl [avanafil, 4-[(3-chloro-4-methoxybenzyl)amino]-2-[2-(hydroxymethyl)-1-pyrrolidinyl]-N-(2-pyrimidinylmethyl)-5-pyrimidinecarboxamide]
- mean reduction in Cmax ([2]; 100 mg with a high fat meal): 24%
- mean reduction in Cmax ([2]; 200 mg with a high fat meal): 39%
- route of clearance ([2]; result in words, mainly CYP3A4, minor extent CYP2C isoform): cleared predominantly by hepatic metabolism
- decrease in AUC ([2]; taken with a high fat meal): ~3.8%
